{"source": "patent US7332183B2", "about": "“Multilayer dosage forms containing NSAIDs and triptans” (Pozen Inc., priority 2002, dated 2008)", "origin": "cited, not measured here", "data": [{"details": "in vivo", "values": [{"smiles": "CC(C(=O)O)c1ccc(-c2ccccc2)c(F)c1", "note": "(stereo not shown) [flurbiprofen]", "half life": "about 6 hours"}, {"smiles": "CCc1cccc2c3c([nH]c12)C(CC)(CC(=O)O)OCC3", "note": "(stereo not shown) [etodolac]", "half life": "about 7 hours"}, {"smiles": "Cc1cccc(Nc2ccccc2C(=O)O)c1C", "note": "[mefanamic acid]", "half life": "about 4 hours"}, {"smiles": "CS(=O)(=O)c1ccc(C2=C(c3ccccc3)C(=O)OC2)cc1", "note": "[rofecoxib]", "half life": "about 17 hours"}]}]}
